Experiments:
[1] = target: PBRM1(2) (Homo sapiens, UniProt Q86U86); assay: BROMOscan ligand-binding assay
From the text: (§1) BROMOscan is a binding assay based on the well-known KINOMEscan technology. This assay measures the binding of a DNA-tagged bromodomain to an immobilized BRD ligand. If an inhibitor is present, it will compete with the bromodomain binding to the immobilized ligand, resulting in reduction of a quantitative PCR (qPCR) signal in a dose-dependent manner.

[2] = target: T1, PCAF (Homo sapiens, UniProt Q92831); assay: BROMOscan ligand-binding assay; details: KD, PCAF
T1 sequence (Q92831 723-827 limits assumed): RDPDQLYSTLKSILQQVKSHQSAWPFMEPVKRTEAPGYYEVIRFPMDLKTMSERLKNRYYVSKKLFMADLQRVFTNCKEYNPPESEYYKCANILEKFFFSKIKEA
From the text: as §1

[3] = target: BRD3(2) (Homo sapiens, UniProt Q15059); assay: BROMOscan ligand-binding assay; details: KD, BROMOscan Gene Symbol BRD3(2)
From the text: as §1

[4] = target: BRD4(fl) (Homo sapiens, UniProt O60885); assay: BROMOscan ligand-binding assay
From the text: as §1

[5] = target: T2, BAZ2A (Homo sapiens, UniProt Q9UIF9); assay: BROMOscan ligand-binding assay
T2 sequence (Q9UIF9 1793-1897 limits assumed): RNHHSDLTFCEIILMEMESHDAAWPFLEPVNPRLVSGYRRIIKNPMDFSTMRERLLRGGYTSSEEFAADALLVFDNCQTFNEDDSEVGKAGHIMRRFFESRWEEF
From the text: as §1

[6] = target: T3, TRIM24(PHD,BRD) (Homo sapiens, UniProt O15164); assay: BROMOscan ligand-binding assay; details: KD, TRIM24(PHD,Bromo.)
T3 sequence (O15164 824-1006 limits assumed): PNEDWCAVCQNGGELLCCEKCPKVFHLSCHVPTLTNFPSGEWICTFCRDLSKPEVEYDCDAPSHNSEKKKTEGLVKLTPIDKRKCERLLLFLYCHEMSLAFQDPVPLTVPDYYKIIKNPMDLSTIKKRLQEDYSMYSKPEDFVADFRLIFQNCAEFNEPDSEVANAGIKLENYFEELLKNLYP
From the text: as §1

[7] = target: T4, ATAD2A (Homo sapiens, UniProt Q6PL18); assay: BROMOscan ligand-binding assay
T4 sequence (Q6PL18 980-1092 limits assumed): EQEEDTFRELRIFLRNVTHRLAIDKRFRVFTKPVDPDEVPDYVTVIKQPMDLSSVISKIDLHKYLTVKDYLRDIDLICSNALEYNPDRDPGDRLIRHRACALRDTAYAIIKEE
From the text: as §1

[8] = target: BRPF1 (Homo sapiens, UniProt P55201); assay: Temperature shift assay (non-BRD reader domains); assay type: binding; details: 10µM compound
[9] = target: T5, HAT1 (Homo sapiens, UniProt O14929); assay: Histone acetyltransferase (HAT) activity assay; assay type: biochemical; details: read-out: HATs Activity (%);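 also: HAT selectivity screen of BRD probe compounds, enzyme activity in % measured with compound at 1 µM and 10 µM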
T5 sequence (O14929 1-419): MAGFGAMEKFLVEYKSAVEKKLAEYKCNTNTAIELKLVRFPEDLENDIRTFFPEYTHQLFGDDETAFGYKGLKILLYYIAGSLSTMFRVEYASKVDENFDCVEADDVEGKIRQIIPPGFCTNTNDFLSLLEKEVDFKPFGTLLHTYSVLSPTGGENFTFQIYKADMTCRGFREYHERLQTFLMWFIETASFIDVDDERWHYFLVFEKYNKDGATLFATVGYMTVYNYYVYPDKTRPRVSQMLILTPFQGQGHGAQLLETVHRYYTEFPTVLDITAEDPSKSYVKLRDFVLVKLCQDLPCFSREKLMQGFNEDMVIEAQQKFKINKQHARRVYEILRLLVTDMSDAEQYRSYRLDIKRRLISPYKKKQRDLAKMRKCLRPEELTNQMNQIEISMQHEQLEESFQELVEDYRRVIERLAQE

[10] = target: BRD8(1) (Homo sapiens, UniProt Q9H0E9); assay: BROMOscan ligand-binding assay
From the text: as §1

[11] = target: T6, GCN5L2 (Homo sapiens, UniProt Q92830); assay: BROMOscan ligand-binding assay
T6 sequence (Q92830 728-832 limits assumed): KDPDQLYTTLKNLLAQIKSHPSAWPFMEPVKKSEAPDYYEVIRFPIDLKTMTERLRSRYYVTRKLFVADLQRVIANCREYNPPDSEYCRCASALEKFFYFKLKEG
From the text: as §1

[12] = target: T7, ATAD2B (Homo sapiens, UniProt Q9ULI0); assay: BROMOscan ligand-binding assay; details: KD, BROMOscan Gene Symbol ATAD2B
T7 sequence (Q9ULI0 951-1066 limits assumed): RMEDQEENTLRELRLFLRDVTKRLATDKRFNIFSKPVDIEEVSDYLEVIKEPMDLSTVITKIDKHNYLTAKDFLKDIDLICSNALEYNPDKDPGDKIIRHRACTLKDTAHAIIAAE
From the text: as §1

[13] = target: MYST3 (Homo sapiens, UniProt Q92794); assay: Histone acetyltransferase (HAT) activity assay; assay type: biochemical; details: read-out: HATs Activity (%);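 also: selectivity screen of bromodomain probe compounds across a panel of histone acetyltransferases, read out as enzyme activity in %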
[14] = target: BRD2(1) (Homo sapiens, UniProt P25440); assay: BROMOscan ligand-binding assay
From the text: as §1

[15] = target: GCN5L2 (Homo sapiens, UniProt Q92830); assay: Histone acetyltransferase (HAT) activity assay; assay type: biochemical; details: read-out: HATs Activity (%);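 also: selectivity screen of BRD probe compounds across a panel of histone acetyltransferases, HAT activity in % with compound at 1 or 10 µM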
Target sequence in this assay (Q92830 whole entry, species assumed): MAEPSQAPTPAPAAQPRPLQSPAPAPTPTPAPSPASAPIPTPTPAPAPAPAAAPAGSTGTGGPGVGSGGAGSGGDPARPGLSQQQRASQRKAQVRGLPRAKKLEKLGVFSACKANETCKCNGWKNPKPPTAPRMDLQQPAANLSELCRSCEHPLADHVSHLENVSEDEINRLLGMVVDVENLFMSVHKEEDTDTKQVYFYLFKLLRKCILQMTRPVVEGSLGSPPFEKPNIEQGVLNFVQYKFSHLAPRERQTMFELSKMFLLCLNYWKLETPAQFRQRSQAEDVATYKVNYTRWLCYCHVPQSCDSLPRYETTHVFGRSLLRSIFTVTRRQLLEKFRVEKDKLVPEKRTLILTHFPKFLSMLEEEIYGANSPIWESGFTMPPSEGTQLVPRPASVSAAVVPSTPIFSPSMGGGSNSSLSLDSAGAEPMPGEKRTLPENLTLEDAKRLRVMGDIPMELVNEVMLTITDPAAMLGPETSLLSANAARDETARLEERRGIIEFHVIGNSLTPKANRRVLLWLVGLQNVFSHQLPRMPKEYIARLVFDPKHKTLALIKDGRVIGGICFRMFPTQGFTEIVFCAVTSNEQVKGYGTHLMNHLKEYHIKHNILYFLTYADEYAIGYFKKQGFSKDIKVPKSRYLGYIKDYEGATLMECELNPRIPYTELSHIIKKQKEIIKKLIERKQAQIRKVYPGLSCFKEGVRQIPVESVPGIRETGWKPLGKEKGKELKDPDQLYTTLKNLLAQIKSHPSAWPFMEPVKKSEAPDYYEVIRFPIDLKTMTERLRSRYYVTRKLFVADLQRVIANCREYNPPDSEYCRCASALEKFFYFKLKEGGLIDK

[16] = target: SMARCA2 (Homo sapiens, UniProt P51531); assay: BROMOscan ligand-binding assay
From the text: as §1

[17] = target: EP300 (Homo sapiens, UniProt Q09472); assay: Histone acetyltransferase (HAT) activity assay; assay type: biochemical; details: read-out: HATs Activity (%);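 also: selectivity screen of bromodomain probe compounds against histone acetyltransferases, with enzyme activity given in percent for compounds tested at 1 and 10 µM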
[18] = target: T8, MYST1 (Homo sapiens, UniProt Q9H7Z6); assay: Histone acetyltransferase (HAT) activity assay; assay type: biochemical; details: read-out: HATs Activity (%);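 also: selectivity screen across a panel of histone acetyltransferases, with compounds tested at 1 and 10 µM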
T8 sequence (Q9H7Z6 1-458): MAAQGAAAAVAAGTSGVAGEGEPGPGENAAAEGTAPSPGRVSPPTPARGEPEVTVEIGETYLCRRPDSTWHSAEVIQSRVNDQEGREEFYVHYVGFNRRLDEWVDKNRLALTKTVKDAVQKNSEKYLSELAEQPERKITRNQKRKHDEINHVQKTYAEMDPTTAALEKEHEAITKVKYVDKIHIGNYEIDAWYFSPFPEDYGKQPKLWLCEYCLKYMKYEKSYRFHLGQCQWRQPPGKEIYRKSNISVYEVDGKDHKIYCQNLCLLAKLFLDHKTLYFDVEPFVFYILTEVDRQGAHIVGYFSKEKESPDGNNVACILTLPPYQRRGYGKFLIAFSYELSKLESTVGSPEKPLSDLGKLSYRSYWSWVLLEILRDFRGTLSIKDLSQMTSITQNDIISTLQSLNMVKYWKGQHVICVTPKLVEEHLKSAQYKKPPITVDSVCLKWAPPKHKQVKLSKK

[19] = KD (BROMOscan), sheet prints no unit (nM)

PBRM1(2), sequence (Q86U86 177-287 limits assumed): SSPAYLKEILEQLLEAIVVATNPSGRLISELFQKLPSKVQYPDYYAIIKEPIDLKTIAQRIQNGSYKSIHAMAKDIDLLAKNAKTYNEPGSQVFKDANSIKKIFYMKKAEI
SMARCA2, sequence (P51531 1-1572 isoform P51531-2): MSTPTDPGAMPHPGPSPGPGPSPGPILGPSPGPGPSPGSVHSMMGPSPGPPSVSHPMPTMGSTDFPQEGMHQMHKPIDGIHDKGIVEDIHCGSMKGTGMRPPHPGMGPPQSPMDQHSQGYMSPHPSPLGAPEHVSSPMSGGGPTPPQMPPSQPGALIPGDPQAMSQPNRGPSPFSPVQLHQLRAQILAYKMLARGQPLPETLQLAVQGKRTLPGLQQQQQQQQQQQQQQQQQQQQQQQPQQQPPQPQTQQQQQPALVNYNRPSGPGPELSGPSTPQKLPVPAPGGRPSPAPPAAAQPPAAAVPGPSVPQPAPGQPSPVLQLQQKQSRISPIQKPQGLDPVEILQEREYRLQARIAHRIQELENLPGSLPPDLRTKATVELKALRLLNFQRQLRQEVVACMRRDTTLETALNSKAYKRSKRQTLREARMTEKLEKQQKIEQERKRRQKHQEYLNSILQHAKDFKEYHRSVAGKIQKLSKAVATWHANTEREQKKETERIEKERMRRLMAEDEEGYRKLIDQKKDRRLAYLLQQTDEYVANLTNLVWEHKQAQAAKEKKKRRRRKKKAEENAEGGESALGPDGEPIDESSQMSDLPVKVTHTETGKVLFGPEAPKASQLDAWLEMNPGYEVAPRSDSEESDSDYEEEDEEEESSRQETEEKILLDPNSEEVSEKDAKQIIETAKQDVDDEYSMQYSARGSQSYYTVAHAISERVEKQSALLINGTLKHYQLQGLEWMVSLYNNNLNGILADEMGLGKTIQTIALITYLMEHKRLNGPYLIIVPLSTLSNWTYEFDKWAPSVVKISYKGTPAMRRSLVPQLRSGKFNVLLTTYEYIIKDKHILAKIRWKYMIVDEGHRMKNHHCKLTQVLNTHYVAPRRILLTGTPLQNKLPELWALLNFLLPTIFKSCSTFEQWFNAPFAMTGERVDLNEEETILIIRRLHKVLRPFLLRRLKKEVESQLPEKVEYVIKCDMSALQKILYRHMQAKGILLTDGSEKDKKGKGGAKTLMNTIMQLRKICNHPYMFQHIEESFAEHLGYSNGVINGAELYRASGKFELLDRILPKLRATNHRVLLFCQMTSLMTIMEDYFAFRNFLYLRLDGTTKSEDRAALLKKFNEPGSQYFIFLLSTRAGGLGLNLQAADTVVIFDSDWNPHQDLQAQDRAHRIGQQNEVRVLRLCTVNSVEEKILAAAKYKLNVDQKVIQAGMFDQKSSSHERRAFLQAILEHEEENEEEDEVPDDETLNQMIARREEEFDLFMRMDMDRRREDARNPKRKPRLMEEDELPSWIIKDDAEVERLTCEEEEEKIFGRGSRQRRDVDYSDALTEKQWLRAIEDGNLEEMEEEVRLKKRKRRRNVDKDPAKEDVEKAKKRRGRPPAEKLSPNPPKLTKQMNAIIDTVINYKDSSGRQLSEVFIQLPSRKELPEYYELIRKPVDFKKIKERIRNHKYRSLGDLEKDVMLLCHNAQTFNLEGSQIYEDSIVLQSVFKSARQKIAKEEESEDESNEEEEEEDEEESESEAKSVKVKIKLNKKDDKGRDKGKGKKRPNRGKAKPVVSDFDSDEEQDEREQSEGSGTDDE
MYST3, sequence (Q92794 whole entry, species assumed): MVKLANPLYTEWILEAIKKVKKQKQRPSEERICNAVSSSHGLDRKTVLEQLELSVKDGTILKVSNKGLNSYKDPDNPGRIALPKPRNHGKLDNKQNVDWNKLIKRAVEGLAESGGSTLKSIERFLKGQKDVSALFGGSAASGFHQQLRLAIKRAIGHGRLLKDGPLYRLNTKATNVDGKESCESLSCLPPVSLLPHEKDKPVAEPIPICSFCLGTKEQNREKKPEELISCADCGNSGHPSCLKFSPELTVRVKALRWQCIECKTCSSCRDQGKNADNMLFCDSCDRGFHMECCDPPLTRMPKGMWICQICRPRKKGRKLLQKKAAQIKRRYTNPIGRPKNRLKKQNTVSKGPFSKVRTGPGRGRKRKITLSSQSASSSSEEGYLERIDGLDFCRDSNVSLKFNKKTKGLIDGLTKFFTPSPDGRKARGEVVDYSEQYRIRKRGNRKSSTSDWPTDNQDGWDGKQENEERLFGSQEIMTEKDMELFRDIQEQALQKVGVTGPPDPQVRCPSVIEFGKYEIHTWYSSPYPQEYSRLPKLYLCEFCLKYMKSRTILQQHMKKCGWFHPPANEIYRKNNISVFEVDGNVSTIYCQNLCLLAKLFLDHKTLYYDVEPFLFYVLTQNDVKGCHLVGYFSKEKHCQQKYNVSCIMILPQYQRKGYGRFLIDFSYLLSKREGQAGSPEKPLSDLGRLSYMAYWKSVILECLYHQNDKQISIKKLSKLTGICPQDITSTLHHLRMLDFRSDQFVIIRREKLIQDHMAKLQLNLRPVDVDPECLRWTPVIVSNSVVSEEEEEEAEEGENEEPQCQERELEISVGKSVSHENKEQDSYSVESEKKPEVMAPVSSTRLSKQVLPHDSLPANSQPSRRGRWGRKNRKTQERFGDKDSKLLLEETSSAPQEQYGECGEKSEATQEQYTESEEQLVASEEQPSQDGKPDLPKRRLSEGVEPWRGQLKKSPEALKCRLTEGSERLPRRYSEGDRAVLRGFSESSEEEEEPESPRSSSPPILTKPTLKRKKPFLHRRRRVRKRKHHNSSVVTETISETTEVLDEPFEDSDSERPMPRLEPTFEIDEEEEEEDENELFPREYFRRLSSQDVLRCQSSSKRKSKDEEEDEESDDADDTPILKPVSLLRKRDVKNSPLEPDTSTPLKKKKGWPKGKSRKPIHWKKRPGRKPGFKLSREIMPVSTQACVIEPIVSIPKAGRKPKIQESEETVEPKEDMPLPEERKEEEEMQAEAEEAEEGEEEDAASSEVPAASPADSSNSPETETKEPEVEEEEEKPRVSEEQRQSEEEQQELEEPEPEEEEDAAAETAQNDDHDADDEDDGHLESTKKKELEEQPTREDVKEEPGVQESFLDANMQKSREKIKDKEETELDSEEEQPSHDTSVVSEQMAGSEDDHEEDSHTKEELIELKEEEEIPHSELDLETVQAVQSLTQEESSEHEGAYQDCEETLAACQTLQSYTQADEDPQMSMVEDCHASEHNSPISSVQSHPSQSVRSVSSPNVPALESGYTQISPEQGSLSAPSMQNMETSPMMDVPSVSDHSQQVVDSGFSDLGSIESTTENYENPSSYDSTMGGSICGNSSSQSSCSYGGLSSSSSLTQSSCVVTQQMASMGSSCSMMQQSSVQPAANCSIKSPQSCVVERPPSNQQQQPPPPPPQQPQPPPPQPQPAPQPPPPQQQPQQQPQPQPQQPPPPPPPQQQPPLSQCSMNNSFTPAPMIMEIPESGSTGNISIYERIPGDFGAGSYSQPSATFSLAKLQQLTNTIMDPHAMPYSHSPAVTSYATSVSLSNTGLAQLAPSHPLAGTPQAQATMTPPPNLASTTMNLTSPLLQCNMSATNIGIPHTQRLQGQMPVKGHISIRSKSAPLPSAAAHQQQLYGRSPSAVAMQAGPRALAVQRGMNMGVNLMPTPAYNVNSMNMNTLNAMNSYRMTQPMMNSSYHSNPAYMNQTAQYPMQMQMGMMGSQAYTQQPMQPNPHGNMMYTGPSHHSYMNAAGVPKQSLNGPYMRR
BRD8(1), sequence (Q9H0E9 706-811 limits assumed): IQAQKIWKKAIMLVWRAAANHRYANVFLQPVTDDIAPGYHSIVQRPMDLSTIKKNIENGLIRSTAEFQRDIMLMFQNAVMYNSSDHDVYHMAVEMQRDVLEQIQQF
BRD2(1), sequence (P25440 74-180 limits assumed): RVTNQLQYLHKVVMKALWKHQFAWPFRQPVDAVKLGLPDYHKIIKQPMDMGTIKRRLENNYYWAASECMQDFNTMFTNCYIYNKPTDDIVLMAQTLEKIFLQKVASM
BRPF1, sequence (P55201 1085-1168 limits assumed, species assumed): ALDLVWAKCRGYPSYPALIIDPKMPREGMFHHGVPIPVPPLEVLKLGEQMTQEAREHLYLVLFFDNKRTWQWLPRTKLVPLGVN
BRD3(2), sequence (Q15059 306-415 limits assumed): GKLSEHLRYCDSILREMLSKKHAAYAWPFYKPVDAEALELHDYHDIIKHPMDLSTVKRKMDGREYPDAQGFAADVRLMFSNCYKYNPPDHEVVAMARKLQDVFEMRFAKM

Kd [1, 19]: > 30000 nM | Kd ([1]; KD, PBRM1(2)): > 100000 nM | Kd [2]: 77 µM | Kd [3]: 20 µM | Kd [4]: 2850 nM | Kd [5]: 70 µM | Kd [6]: 14 µM | Kd [7, 19]: > 30000 nM | Kd ([7]; KD, BROMOscan Gene Symbol ATAD2A): > 100000 nM | Tm (C) 10µM, temperature shift [8]: -0.2 Kelvin | activity at 1 µM ([9]; 1µM): 100% | activity at 10 µM ([9]; 10µM): 94% | Kd [10, 19]: > 30000 nM | Kd ([10]; KD, BROMOscan Gene Symbol BRD8(1)): > 100000 nM | Kd [11, 19]: > 30000 nM | Kd ([11]; KD, GCN5L2): > 100000 nM | Kd [12]: 71 µM | activity at 1 µM ([13]; 1µM): 98% | activity at 10 µM ([13]; 10µM): 99% | Kd [14]: 5.7 µM | activity at 1 µM ([15]; 1µM): 105% | activity at 10 µM ([15]; 10µM): 102% | Kd [16, 19]: > 30000 nM | Kd ([16]; KD, SMARCA2): > 100000 nM | activity at 1 µM ([17]; 1µM): 97% | activity at 10 µM ([17]; 10µM): 99% | activity at 1 µM ([18]; 1µM): 98% | activity at 10 µM ([18]; 10µM): 103%
SMILES: CCC(=O)N1CCOc2c(cc(-c3ccc(OC)c(OC)c3)cc2OCC2CCCN(C)C2)C1 (stereo not shown) [I-CBP112]
